According to patent US20230255974A1, “USE OF THYROMIMETICS FOR THE TREATMENT OF CANCER” (THE UNIVERSITY OF VERMONT, priority 2020, published 2023):
Entries after “also recorded” stand apart in the source; their conditions may differ. Like-named read-outs stand apart in the source and are kept apart here. One block for each molecule: values may come before it.

Columns and labels:
[1] = system: SW1736 cells (SW-EV, SW-TRβ); experiment: LY294002 inhibition of ATC cell growth; format: cell-based; details: Homo sapiens
[2] = system: SW1736 cells (SW-EV, SW-TRβ); experiment: LY294002 inhibition of ATC cell migration; format: cell-based, human; details: presence of liganded TRβ (SW-TRβ vs SW-EV)
Procedure: Migration Assay. Cell migration was determined by wound healing assay. Cells were plated and allowed to grow to 100% confluency. Two hours prior to scratching, cells were treated with […] Mitomycin C. A scratch was performed with a P1000 pipette tip and debris was washed away with PBS. Migration media was supplemented with 10^−8 M T3. Images were obtained at 0, 24, 48, and 72 hours. Wound closure was measured using ImageJ macro “Wound Healing Tool” (http://dev.mri.cnrs.fr/projects/imagej-macros/wiki/Wound_Healing_Tool). Values were normalized so that the initial scratch was 0% closure.
TRβ also enhances PI3K inhibitor LY294002 inhibition of ATC cell growth and cell migration. […] LY294002 induces a 50% reduction in growth of normal-like thyroid cells NthyOri in which TRβ is expressed. […] Liganded TRβ suppresses ATC cell growth and migration as a tumor suppressor and critically enhances the effectiveness of a potential therapeutic agent.

[3] = system: PI3K; experiment: PI3K activity by pAkt and p mTOR immunoblot; format: cell-based, human; details: SW-TRβ vs SW-EV, LY294002 24 hr, T3 10^−8 M
Procedure: (§1) Immunoblot Analysis. Proteins were isolated from whole cells in lysis buffer (20 mM Tris-HCl [pH 8], 137 mM NaCl, 10% glycerol, 1% Triton X-100, and 2 mM EDTA) containing Protease Inhibitor Cocktail 78410 (Thermo Scientific). Proteins were resolved by polyacrylamide gel electrophoresis on 10% sodium dodecyl sulfate gels EC60752 (Life Technologies) and immobilized onto nitrocellulose membranes (GE Healthcare) by electroblot (Bio-Rad Laboratories). Specific proteins were detected by immunoblotting with the indicated antibodies (Table 4); immunoreactive proteins were detected by enhanced chemiluminescence (Thermo Scientific) on a ChemiDoc XRS+ (Bio-Rad Laboratories).

[4] = system: NthyOri; experiment: LY294002 growth of normal-like thyroid cells; format: cell-based; details: normal-like thyroid cells NthyOri in which TRβ is expressed
[5] = system: SW1736; experiment: Cell growth with STAT1 activator 2-NP; format: cell-based, human; details: 0-50 μM 2-NP, 24 hours
Procedure: (§2) Growth Assays. Cell growth was measured either through live cell imaging or by cell counting at discrete points. Live cell imaging was used to assess the growth kinetics of SW-EV and SW-TRβ. To perform live cell imaging, 5000 cells were plated per well in 24 well plates. After 24 hours in phenol red free, charcoal stripped media, media was supplemented with either 10^−8 M T3 or equivolume vehicle (NaOH). Every two hours cells were imaged with a Lionheart automated microscope (BioTek) and quantified with Gen5 software (BioTek). The cells entered the log phase of growth at approximately 48 hours, and the portion of the curve following this point was used to calculate the doubling time of the cells. In order to measure growth manually, 25,000 cells were plated per well in a six well plate. Cells were grown in full thyroid media with the addition of 2-(1,8-Naphthyridin-2-yl)phenol (2-NP) (Abcam) or vehicle (DMSO). Every 24 hours cell counts were assessed by hemocytometer.
(§3) STAT1 has anti-proliferative activity, raising the question whether it can be exploited pharmacologically to reduce ATC growth. Baseline expression of key genes in the JAK1-STAT1 pathway and TR isoform levels (TRβ and TRα) in 3 additional anaplastic thyroid cancer cell lines are illustrated in FIG. 10C.

[6] = system: KTC-2; experiment: Cell growth with STAT1 activator 2-NP; format: cell-based; details: 0-50 μM 2-NP, 24 hours
Procedure: as §2, §3

[7] = system: OCUT-2; experiment: Cell growth with STAT1 activator 2-NP; format: cell-based; details: 0-50 μM 2-NP, 24 hours
Procedure: as §2, §3

[8] = system: MCF7; experiment: Mammosphere growth, Luminal A breast cancer cells; format: cell-based
[9] = system: SW1736 cells (SW-EV, SW-TRβ); format: cell-based, human; details: for ATC cell death: GC-1 10^−8 M; for reduction in cell growth (AUC of growth curve): GC-1 10^−8M, 4 days
[10] = system: SW1736 cells (SW-EV, SW-TRβ); details: SW-TRβ1, GC-1 10^−8M
Procedure: (§4) Tumorsphere Assay. Cancer stem cell tumorspheres formed from ATC cells (thyrospheres) were used to assess self-renewal and sphere-forming efficiency. For generating thyrospheres, adherent monolayer cells were dissociated with Trypsin-EDTA, and single cells were moved to round-bottom ultra-low attachment 24-well plates at a density of 1000 cells/well (Corning). […] Where indicated, adherent cells were treated with 0.5 μM Buparlisib, 0.5 μM Alpelisib, 1 nM Palbociclib, 5 μM Sorafenib, or vehicle for 72 hours prior to thyrosphere-forming assay. […] Thyrospheres grew for seven days and were then counted with an inverted microscope.

[11] = system: SW1736, 8505C, OCUT2, and KTC-2 cells; experiment: Cell migration by scratch (wound healing) assay, inhibitors with or without GC-1; format: cell-based, human
Procedure: Migration Assay. Cell migration was determined by wound healing assay. Cells were plated and allowed to grow to 100% confluency. Four hours prior to scratching, cells were treated with […] Mitomycin C. A scratch was performed with a P1000 pipette tip and debris was washed away with PBS. […] Images were obtained at 0, 16, 24, 48, and 72 hours or until 100% wound closure, depending on the cell type. The wound closure was measured using the ImageJ macro “Wound Healing Tool” (https://github.com/MontpellierRessourcesImagerie/imagej_macros_and_scripts/wiki/Wound-Healing-Tool). Percent closure was calculated relative to the area of the initial scratch.

[12] = system: SW1736, 8505C, OCUT2, and KTC-2 cells; details: GC-1 concentrations higher than 10^-8M
[13] = system: MDA-MB-468 cells (EV, TRβ); details: triple negative breast cancer cells with low TRβ expression
Procedure: Triple negative breast cancer were examined next. […] TNBC cancers and other advanced solid tumors have lower endogenous levels of expression of TRβ. […] Cell migration was measured by scratch assay (FIG. 28). […] Data are mean+/−SD; *indicates p<0.05 determined by t-test.

[14] = system: KTC-2; experiment: Xenograft model of anaplastic thyroid tumor; format: in vivo, SCID female mice; details: KTC-2 subcutaneous xenograft, GC-1 0.3 mg/Kg, Buparlisib 5 mg/Kg, approximately 6 week study
Procedure: Doses of Buparlisib tested in xenograft studies range from 5 mg/Kg to 20 mg/Kg.
Drugs were prepared at concentrations suitable for intraperitoneal (i.p.) injection of 5 μL/g body weight. […] Drug stocks were prepared by dissolving sobetirome and Sob-AM2 at 1 mg/mL in dimethyl sulfoxide (DMSO). […] Vehicles were prepared with 20% DMSO in saline.”
Buparlisib was used as a 5 mg/kg buparlisib treatment (recommended by Novartis). Buparlisib suspension was prepared in 0.5% methyl cellulose and 0.5% Tween20.
Tumors were established by subcutaneous injection of 5×10^6 tumor cells in 100 μL of phosphate-buffered saline into the flank region into SCID female mice. Thyroid cancer occurs in females ˜4× more often than in males. As funding is available; both males and females will be tested.
The study was approximately a 6 week study. Tumor mass was measured, and tumors and tissues were saved for IHC and RNAseq.

[15] = system: SW1736 cells (SW-EV, SW-TRβ); experiment: Apoptosis assay (PARP1 and caspase 3 cleavage, immunoblot); format: cell-based, human; details: SW-TRβ
Text: as §1, with “Proteins were isolated from whole cells in lysis buffer (20 mM Tris-HCl [pH 8], 137 mM NaCl, 10% glycerol, 1% Triton X-100, and 2 mM EDTA) containing Protease Inhibitor Cocktail 78410 (Thermo Scientific).” left out
Apoptosis Assay. Cells were plated at a density of 50,000 cells/well and treated with vehicle (1 N NaOH) or 10^−8 M T3. After 5 days the cells were lysed for analysis by immunoblot. Poly (ADP-ribose) polymerase 1 (PARP1) and Caspase 3 cleavage were assessed to measure apoptotic signaling.
Immunoblot Analysis. […] Proteins were resolved by polyacrylamide gel electrophoresis on 10% sodium dodecyl sulfate gels EC60752 (Thermo Fisher Scientific) and immobilized onto nitrocellulose membranes (GE Healthcare, Chicago, Ill., USA) by electroblot (Bio-Rad Laboratories, Hercules, Calif., USA). Specific proteins were detected by immunoblotting with the indicated antibodies (Table 4); immunoreactive proteins were detected by enhanced chemiluminescence (Thermo Scientific) on a ChemiDoc XRS+ (Bio-Rad Laboratories).

[16] = system: SW1736, 8505C, OCUT2, and KTC-2 cells; experiment: Thyrosphere outgrowth, unmodified ATC cell lines; format: cell-based, human; details: inhibitor three days before plating, or 10 nM GC-1 for 7 days
Procedure: as §4

[17] = system: MDA-MB-468 cells (EV, TRβ); experiment: Relative cell growth by cell counting, triple negative breast cancer cells; format: cell-based; details: MDA-MB-468-TRβ, 10 nM GC-1, 8 days
Text: MDA-MB-468 cells were transduced with empty vector (EV) (FIGS. 29A, 29C) or thyroid hormone receptor beta (TRβ) (FIGS. 29B, 29D) and maintained in complete media. […] Data are mean+/−SD; * indicates p<0.05 determined by t-test.

[18] = system: SW1736 cells (SW-EV, SW-TRβ); experiment: Buparlisib with or without GC-1, cell viability/growth, 24 hr; format: cell-based, human
Procedure: SW1736 cells transduced with lentiviral vector (EV) or lentiviral vector containing TRβ (TRβ) were treated with buparlisib (0 μM, 0.1 μM, 1 μM, or 10 μM) for 24 hours.

[19] = system: MDA-MB-468 cells (EV, TRβ); experiment: Mammosphere growth, triple negative breast cancer cells; format: cell-based
Text: Data are mean+/−SD; * indicates p<0.05 determined by t-test.

EC50 ([1]; SW-1736, SW-EV (no TRβ re-expression), T3): 5.21 µM
EC50 ([1]; SW-1736, SW-EV, unit inferred): 5.21 µM
EC50 ([1]; SW-1736, SW-TRβ, liganded (T3)): 1.13 µM
EC50 ([1]; SW-1736, SW-TRβ, liganded (T3), unit inferred): 1.13 µM
Compound: O=c1cc(N2CCOCC2)oc2c(-c3ccccc3)cccc12 [LY294002, 2-(morpholin-4-yl)-8-phenyl-4H-chromen-4-one]
inhibition of ATC cell migration [2]: enhances LY294002 inhibition of ATC cell migration
pAkt vs total Akt and p mTOR vs total mTOR [3]: decreased pAkt compared with total Akt and decreased p mTOR compared with total mTOR
reduction in growth [4]: 50%

Compound: Oc1ccccc1-c1ccc2cccnc2n1 [2-NP, 2-(1,8-naphthyridin-2-yl)phenol]
reduction in cell growth [5]: recapitulates the effect of T3-TRβ; also recorded: most responsive
reduction in cell growth [6]: recapitulates the effect of T3-TRβ
reduction in cell growth [7]: recapitulates the effect of T3-TRβ

Compound: CC/C(=C(\c1ccccc1)c1ccc(OCCN(C)C)cc1)c1ccccc1 [tamoxifen]
effect of inhibitor in the presence of GC-1 ([8]; MCF7, 10 nM GC-1, 5 days): enhanced the effect

Compound: Cc1cc(OCC(=O)O)cc(C)c1Cc1ccc(O)c(C(C)C)c1 [GC-1, 2-[4-[(4-hydroxy-3-propan-2-ylphenyl)methyl]-3,5-dimethylphenoxy]acetic acid]
ATC cell death ([9]; SW1736 with endogenous TRβ (EV)): induces ATC cell death
reduction in cell growth (AUC of growth curve) ([9]; SW-EV): 50%
ATC cell death ([9]; SW-TRβ (lentiviral transduction)): amplified with higher levels of TRβ
reduction in cell growth (AUC of growth curve) ([9]; SW-TRβ): 75%
reduction in thyrosphere formation [10]: greater than 80%
wound closure, agent alone ([11]; GC-1 10^−8M or inhibitor alone): able to prevent wound closure of all tumor cell lines with similar success as each inhibitor alone
mammosphere formation ([8]; MCF7, 10 nM GC-1 alone): could reduce mammosphere formation
cell toxicity [12]: cause cell toxicity
cell migration [13]: able to slow migration
metastases [14]: no visually detectable metastases
tumor vascularization [14]: minimal vascularization
cleaved PARP and cleaved caspase 3 ([15]; GC-1, 5 days): significantly increased the presence of cleaved PARP and cleaved caspase 3
apoptosis (cleaved PARP and caspase) ([15]; five days): induces apoptosis

Compound: CNC(=O)c1cc(Oc2ccc(NC(=O)Nc3ccc(Cl)c(C(F)(F)F)c3)cc2)ccn1 [Sorafenib, 4-[4-[[4-chloro-3-(trifluoromethyl)phenyl]carbamoylamino]phenoxy]-N-methylpyridine-2-carboxamide]
thyrosphere formation/outgrowth, agent alone [16]: most effective overall

Compound: CC(=O)c1c(C)c2cnc(Nc3ccc(N4CCNCC4)cn3)nc2n(C2CCCC2)c1=O [Palbociclib, 6-acetyl-8-cyclopentyl-5-methyl-2-[(5-piperazin-1-ylpyridin-2-yl)amino]pyrido[6,5-d]pyrimidin-7-one]
cell growth, combination with GC-1 [17]: synergistic effect to reduce cell growth

EC50, cell viability ([18]; SW-TRβ vs SW-EV): significantly reduced EC50
Compound: Nc1cc(C(F)(F)F)c(-c2cc(N3CCOCC3)nc(N3CCOCC3)n2)cn1 [Buparlisib, 5-(2,6-dimorpholin-4-ylpyrimidin-4-yl)-4-(trifluoromethyl)pyridin-2-amine]
toxicity to cells ([18]; 10 μM): toxic
cell viability ([18]; SW-EV, buparlisib alone 0-10 μM): concentration dependent decrease in cell viability
sensitivity of cell growth to buparlisib ([18]; SW-TRβ plus GC-1 10^−8M): increase the sensitivity to buparlisib at 0.1 and 1 μM
wound closure, inhibitor combined with GC-1 ([11]; KTC-2 cells, GC-1 10^−8M plus 0.5 μM Buparlisib): exception
cell growth, combination with GC-1 [17]: synergistic effect to reduce cell growth
mammosphere growth, Buparlisib in the presence of GC-1 ([19]; 10 nM GC-1, 5 days): increases the efficacy of Buparlisib to reduced mammosphere growth
reduction of effective Buparlisib in the presence of GC-1 ([19]; mammospheres from MDA-MB-468-TRβ cells): 50%
metastases [14]: detectable metastases to the heart
tumor growth [14]: smaller non-nodular growth
